In ChEMBL document CHEMBL4118093, “Identification of a Hit Series of Antileishmanial Compounds through the Use of Mixture-Based Libraries” (ACS Med Chem Lett, 2017):

How the values were obtained:
Leishmania donovani [1] = assay: Antileishmanial activity against Leishmania donovani axenic amastigotes at 5 uM after 72 hrs by Celltiter reagent based assay relative to control; format: functional
J774 = assay: Cytotoxicity against mouse J774 cells
Leishmania donovani [2] = assay: Antileishmanial activity against Leishmania donovani axenic amastigotes at 2.5 uM after 72 hrs by Celltiter reagent based assay relative to control; format: functional
[3] = Selectivity index, ratio of IC50 for mouse J774 cells to IC50 for Leishmania donovani axenic amastigotes infected in mouse J774 cells; format: toxicity, cell-based; conditions: read-out: Ratio IC50
Leishmania donovani [4] = assay: Antileishmanial activity against Leishmania donovani axenic amastigotes infected in mouse J774 cells measured after 72 hrs by Draq5 staining based high content screening assay; format: functional, organism-based; conditions: J774, 72 h

Row | Compound | inhibition at 5 µM (Leishmania donovani [1]) | IC50 (J774) | inhibition at 2.5 µM (Leishmania donovani [2]) | selectivity ratio [3] | IC50 (Leishmania donovani [4])
1 | N=C1NC[C@H](CCCCN2C[C@@H](Cc3ccc4ccccc4c3)N(CCc3ccc(-c4ccccc4)cc3)C2=N)N1CCC12CC3CC(CC(C3)C1)C2 | 0% | 41 µM | 0% | 25 | 1.7 µM
2 | N=C1N(CCCC[C@H]2CNC(=N)N2CCC23CC4CC(CC(C4)C2)C3)CCN1CCc1ccc(-c2ccccc2)cc1 |  | 23 µM |  | 33 | 0.7 µM
3 | CCCCCCCN1C(=N)N(CCCC[C@H]2CNC(=N)N2)C[C@@H]1CC1CCCCC1 |  | 50 µM |  | 20 | 2.5 µM
4 | CC1CCC(CN2C(=N)NC[C@@H]2CCCCN2CCNC2=N)CC1 (some centres not stated) |  | 6 µM |  | 1 | 4.4 µM
5 | N=C1NC[C@H](CCCCN2C[C@@H](Cc3ccc4ccccc4c3)N(CCCCC3CCCCC3)C2=N)N1CCc1cccc(C(F)(F)F)c1 | 75% | 50 µM | 6% | 28 | 1.8 µM
6 | N=C1NCCN1CCCC[C@H]1CNC(=N)N1CCc1ccccc1 |  | 16 µM |  | 13 | 1.2 µM
7 | CCCC[C@H]1CN(CCCC[C@H]2CNC(=N)N2CCC23CC4CC(CC(C4)C2)C3)C(=N)N1CCc1ccc(-c2ccccc2)cc1 | 0% | 22 µM | 0% | 25 | 0.9 µM
8 | CCCC[C@H]1CN(CCCC[C@H]2CNC(=N)N2CCC23CC4CC(CC(C4)C2)C3)C(=N)N1 |  | 13 µM |  | 3 | 4.2 µM
9 | N=C1N[C@@H](CC2CCCCC2)CN1CCCC[C@H]1CNC(=N)N1CCCCC1CCCCC1 |  | 27 µM |  | 16 | 1.8 µM
10 | CCCCCCCN1C(=N)N(CCCC[C@H]2CNC(=N)N2CCc2cccc(C(F)(F)F)c2)C[C@H]1Cc1ccc2ccccc2c1 | 100% | 50 µM | 37% | 14 | 3.5 µM
11 | CCCC[C@H]1CN(CCCC[C@H]2CNC(=N)N2)C(=N)N1 |  | 50 µM |  | 5 to 10 | 5 to 10 µM
12 | N=C1NC[C@H](CCCCN2CCN(CCc3ccccc3)C2=N)N1 |  | 20 µM |  | 36 | 0.6 µM
13 | CCCC[C@H]1CNC(=N)N1CCc1ccccc1 |  | 25 µM |  | 23 | 1.1 µM
14 | N=C1NC[C@H](CCCCN2C[C@H](CC3CCCCC3)N(CCc3ccc(-c4ccccc4)cc3)C2=N)N1CCC12CC3CC(CC(C3)C1)C2 | 57% | 17 µM | 14% | 20 | 0.9 µM
15 | CCCC[C@H]1CN(CCCC[C@H]2CNC(=N)N2CCCCC2CCCCC2)C(=N)N1CCc1ccc(-c2ccccc2)cc1 | 98% | 12 µM | 78% | 2 | 5 µM
16 | CCCCCCCN1C(=N)N(CCCC[C@H]2CNC(=N)N2CCCCC2CCCCC2)C[C@@H]1CCCC | 98% | 16 µM | 68% | 12 | 1.3 µM
17 | CCCCCCCN1C(=N)N(CCCC[C@H]2CNC(=N)N2)C[C@@H]1CCCC |  | 22 µM |  | 17 | 1.3 µM
18 | N=C1NC[C@H](CCCCN2C[C@@H](Cc3ccc4ccccc4c3)N(CCc3ccc(-c4ccccc4)cc3)C2=N)N1CCc1cccc(C(F)(F)F)c1 | 0% | 50 µM | 0% | 39 | 1.3 µM
19 | CCCC[C@H]1CN(CCCC[C@H]2CNC(=N)N2)C(=N)N1CCc1ccc(-c2ccccc2)cc1 |  | 50 µM |  | 43 | 1.2 µM
20 | CCCCCCCN1C(=N)N(CCCC[C@H]2CNC(=N)N2CCC23CC4CC(CC(C4)C2)C3)C[C@@H]1CC1CCCCC1 | 85% | 26 µM | 14% | 11 | 2.5 µM
21 | CCCC[C@H]1CNC(=N)N1CCc1ccc(-c2ccccc2)cc1 |  | 15 µM |  | 6 | 2.4 µM
22 | CCCC[C@H]1CN(CCCC[C@H]2CNC(=N)N2CCc2cccc(C(F)(F)F)c2)C(=N)N1CCCCC1CCCCC1 | 43% | 50 µM | 0% | 10 | 5 µM
23 | CCCCCCCN1C(=N)N(CCCC[C@H]2CNC(=N)N2CCc2cccc(C(F)(F)F)c2)C[C@@H]1CCCC | 26% | 48 µM | 9% | 81 | 0.6 µM
24 | N=C1NCCN1CCCC[C@H]1CNC(=N)N1CCc1cccc(C(F)(F)F)c1 |  | 7 µM |  | 9 | 0.9 µM
25 | CCCCCCCN1CCN(CCCC[C@H]2CNC(=N)N2CCCCC2CCCCC2)C1=N |  | 6 µM |  | 2 | 3.5 µM
26 | N=C1NCCN1CCCC[C@H]1CNC(=N)N1CCC12CC3CC(CC(C3)C1)C2 |  | 50 µM |  | 14 | 3.5 µM

Row | Compound | inhibition at 5 µM (Leishmania donovani [1]) | IC50 (J774) | inhibition at 2.5 µM (Leishmania donovani [2]) | selectivity ratio [3] | IC50 (Leishmania donovani [4])
27 | Cc1cccc(CCN2C(=N)NC[C@@H]2CCCCN2CCNC2=N)c1 |  | 50 µM |  | 56 | 0.9 µM
28 | CC1CCCCC1CN1C(=N)NC[C@@H]1CCCCN1CCNC1=N (some centres not stated) |  | 14 µM |  | 3 | 5.4 µM
29 | N=C1NC[C@H](CCCCN2CCNC2=N)N1 |  | 50 µM |  | 10 | 4.8 µM
30 | CCCCCCCN1C(=N)N(CCCC[C@H]2CNC(=N)N2CCCCC2CCCCC2)C[C@H]1Cc1ccc2ccccc2c1 | 97% | 50 µM | 6% | 38 | 1.3 µM
31 | N=C1NC[C@H](CCCCN2C[C@@H](Cc3ccc4ccccc4c3)N(CCCCC3CCCCC3)C2=N)N1CCC12CC3CC(CC(C3)C1)C2 | 99% | 32 µM | 99% | 13 | 2.6 µM
32 | CCCC[C@H]1CN(CCCC[C@H]2CNC(=N)N2CCc2cccc(C(F)(F)F)c2)C(=N)N1CCc1ccc(-c2ccccc2)cc1 | 100% | 28 µM | 47% | 88 to 89 | 0.3 µM
33 | N=C1NC[C@H](CCCCN2C[C@H](CC3CCCCC3)N(CCc3ccc(-c4ccccc4)cc3)C2=N)N1CCc1cccc(C(F)(F)F)c1 | 97% | 46 µM | 35% | < 9 | > 5 µM
34 | Cc1ccc(CCN2C(=N)NC[C@@H]2CCCCN2CCNC2=N)cc1 |  | 22 µM |  | 6 | 3.9 µM
35 | CC1CCCC(CCN2C(=N)NC[C@@H]2CCCCN2CCNC2=N)C1 (some centres not stated) |  | 19 µM |  | 10 | 1.8 µM
36 | N=C1NCCN1CCc1ccccc1 |  | 8 µM |  | 1 | 10 µM
37 | CCCCCCCN1CCN(CCCC[C@H]2CNC(=N)N2CCc2cccc(C(F)(F)F)c2)C1=N |  | 9 µM |  | 4 | 2.5 µM
38 | N=C1NC[C@H](CCCCN2CCN(CCc3ccc(-c4ccccc4)cc3)C2=N)N1 |  | 50 µM |  | 10 | 4.9 µM
39 | CCCC[C@H]1CN(CCCC[C@@H]2CNC(=N)N2CCc2cccc(C(F)(F)F)c2)C(=N)N1CCCCC1CCCCC1 |  | 50 µM |  | 79 | 0.6 µM
40 | N=C1NC[C@H](CCCCN2C[C@@H](Cc3ccc4ccccc4c3)N(CCc3ccc(-c4ccccc4)cc3)C2=N)N1CCCCC1CCCCC1 | 95% | 34 µM | 15% | < 7 | > 5 µM
41 | CCCC[C@H]1CN(CCCC[C@H]2CNC(=N)N2CCCCC2CCCCC2)C(=N)N1CCCCC1CCCCC1 | 99% | 15 µM | 71% | < 3 | > 5 µM
42 | CCCC[C@H]1CNC(=N)N1CCC12CC3CC(CC(C3)C1)C2 |  | 12 µM |  | 3 | 4.7 µM
43 | N=C1NC[C@H](CCCCN2C[C@H](CC3CCCCC3)N(CCCCC3CCCCC3)C2=N)N1CCC12CC3CC(CC(C3)C1)C2 | 28% | 23 µM | 0% | < 5 | > 5 µM
44 | CCCCCCCN1C(=N)N(CCCC[C@@H]2CNC(=N)N2CCCCC2CCCCC2)C[C@@H]1CC1CCCCC1 |  | 50 µM |  | 6 | 8.9 µM
45 | CC1CCC(CCN2C(=N)NC[C@@H]2CCCCN2CCNC2=N)CC1 (some centres not stated) |  | 17 µM |  | 28 | 0.6 µM
46 | CCCC[C@H]1CN(CCCC[C@H]2CNC(=N)N2CCc2cccc(C(F)(F)F)c2)C(=N)N1 |  | 11 µM |  | 3 | 3.5 µM
47 | CCCCCCCN1CCN(CCCC[C@H]2CNC(=N)N2)C1=N |  | 13 µM |  | 1 | 10 µM
48 | N=C1NCCN1CCCC[C@H]1CNC(=N)N1CCCCC1CCCCC1 |  | 24 µM |  | 5 | 5.2 µM
49 | Cc1ccccc1CCN1C(=N)NC[C@@H]1CCCCN1CCNC1=N |  | 50 µM |  | 14 | 3.5 µM
50 | CCCC[C@H]1CNC(=N)N1CC1CCC(C)CC1 (some centres not stated) |  | 6 µM |  | 10 | 0.6 µM
51 | N=C1NCCN1CCc1ccc(-c2ccccc2)cc1 |  | 15 µM |  | 3 | 4.8 µM
52 | CCCC[C@H]1CN(CCCC[C@@H]2CNC(=N)N2CCC23CC4CC(CC(C4)C2)C3)C(=N)N1CCc1ccc(-c2ccccc2)cc1 |  | 21 µM |  | 6 | 3.8 µM
